From patent US20020026053A1, “Novel 3-(substituted) -2- indolinones compounds and use thereof as inhibitors of protein kinase activity” (priority 1997, published 2002) come the findings set out here.

Several values for one entry are separate records, joined by “and”; a condition that tells them apart may be missing. Equal entries are not always repeated.

The subject of the experiment is FLK-1 receptor. Briefly: FLK-1 Assay (cellular/catalytic ELISA, VEGF-stimulated phosphotyrosine). In kind it is cell-based. Further details: concentration or dose not given beside the values. How it is done:
The cellular/catalytic assays described herein are performed in an ELISA format. The general procedure is as follows: a compound is introduced to cells expressing the test kinase, either naturally or recombinantly, for a selected period of time after which, if the test kinase is a receptor, a ligand known to activate the receptor is added. The cells are lysed and the lysate is transferred to the wells of an ELISA plate previously coated with a specific antibody recognizing the substrate of the enzymatic phosphorylation reaction. Non-substrate components of the cell lysate are washed away and the amount of phosphorylation on the substrate is detected with an antibody specifically recognizing phosphotyrosine compared with control cells that were not contacted with a test compound.
An ELISA assay is conducted to measure the kinase activity of the FLK-1 receptor and more specifically, the inhibition or activation of TK activity on the FLK-1 receptor. Specifically, the following assay can be conducted to measure kinase activity of the FLK-1 receptor in cells genetically engineered to express Flk-1.
a. Corning 96-well ELISA plates (Corning Catalog No. 25805-96);
b. Cappel goat anti-rabbit IgG (catalog no. 55641);
c. PBS (Gibco Catalog No. 450-1300EB);
d. TBSW Buffer (50 mM Tris (pH 7.2), 150 mM NaCl and 0.1% Tween-20);
e. Ethanolamine stock (10% ethanolamine (pH 7.0), stored at 4° C.);
f. HNTG buffer (20 mM HEPES buffer (pH 7.5), 150 mM NaCl, 0.2% Triton X-100, and 10% glycerol);
g. EDTA (0.5 M (pH 7.0) as a 100× stock);
h. Sodium orthovanadate (0.5 M as a 100× stock);
i. Sodium pyrophosphate (0.2 M as a 100× stock);
j. NUNC 96 well V bottom polypropylene plates (Applied Scientific Catalog No. AS-72092);
k. NIH3T3 C7#3 Cells (FLK-1 expressing cells);
l. DMEM with 1× high glucose L-Glutamine (catalog No. 11965-050);
n. L-glutamine, Gibco (catalog no. 25030-016);
o. VEGF, PeproTech, Inc. (catalog no. 100-20)(kept as 1 μg/100 μl stock in Milli-Q dH2O and stored at −20° C.;
p. Affinity purified anti-FLK-1 antiserum;
q. UB40 monoclonal antibody specific for phosphotyrosine (see, Fendley, et al., 1990, Cancer Research 50:1550-1558);
r. EIA grade Goat anti-mouse IgG-POD (BioRad catalog no. 172-1011);
s. 2,2-azino-bis(3-ethylbenz-thiazoline-6-sulfonic acid (ABTS) solution (100 mM citric acid (anhydrous), 250 mM Na2HPO4 (pH 4.0), 0.5 mg/ml ABTS (Sigma catalog no. A-1888)), solution should be stored in dark at 4° C. until ready for use;
t. H2O2 (30% solution) (Fisher catalog no. H325);
u. ABTS/ H2O2 (15 ml ABTS solution, 2 μl H2O2) prepared 5 minutes before use and left at room temperature;
v. 0.2 M HCl stock in H2O;
w. dimethylsulfoxide (100%) (Sigma Catalog No. D-8418); and
y. Trypsin-EDTA (Gibco BRL Catalog No. 25200-049).
1. Coat Corning 96-well ELISA plates with 1.0 μg per well Cappel Anti-rabbit IgG antibody in 0.1M Na2CO3 pH 9.6. Bring final volume to 150 μl per well. Coat plates overnight at 4° C. Plates can be kept up to two weeks when stored at 4° C.
2. Grow cells in Growth media (DMEM, supplemented with 2.0 mM L-Glutamine, 10% FBS) in suitable culture dishes until confluent at 37° C., 5% CO2.
3. Harvest cells by trypsinization and seed in Corning 25850 polystyrene 96-well round bottom cell plates, 25,000 cells/well in 200 μl of growth media.
4. Grow cells at least one day at 37° C., 5% CO2.
5. Wash cells with D-PBS 1×.
6. Add 200 μl/well of starvation media (DMEM, 2.0 mM 1-Glutamine, 0.1% FBS). Incubate overnight at 37° C., 5% CO2.
7. Dilute Compounds 1:20 in polypropylene 96 well plates using starvation media. Dilute dimethylsulfoxide 1:20 for use in control wells.
8. Remove starvation media from 96 well cell culture plates and add 162 μl of fresh starvation media to each well.
9. Add 18 μl of 1:20 diluted compound dilution (from step 7) to each well plus the 1:20 dimethylsulfoxide dilution to the control wells (+/− VEGF), for a final dilution of 1:200 after cell stimulation. Final dimethylsulfoxide is 0.5%. Incubate the plate at 37° C., 5% CO2 for two hours.
10. […]
(In general: ELISA stands for enzyme-linked immunosorbent assay.)
`Cc1c(Br)cc(Br)c2c1C(=Cc1ccc(C#N)cc1)C(=O)N2` [10727/H09]: the “Flk Kinase % Inhibition (P.110)” value was −1.4%.

For `Cc1c(Br)cc(Br)c2c1C(=Cc1c[nH]c(=O)[nH]c1=O)C(=O)N2` [10731/H08], the “Flk Kinase % Inhibition (P.110)” value worked out at 31.4%. Under `Cc1[nH]c(C=C2C(=O)Nc3c(Br)cc(Br)c(C)c32)c(Br)c1Br` [10717/H11] stands −0.4%; under `Cc1c(Br)cc(Br)c2c1C(=CC1C=CCCC1)C(=O)N2` (stereo not shown) [10729/H11], 8.9%; under `CCc1ccc(C=C2C(=O)Nc3c(Br)cc(Br)c(C)c32)s1` [10726/H10], 11.0%. As for `Cc1ccsc1C=C1C(=O)Nc2c(Br)cc(Br)c(C)c21` [10729/H05], the “Flk Kinase % Inhibition (P.110)” value is given as 22.4%. The figure for `COc1cc(N(C)C)ccc1C=C1C(=O)Nc2c(Br)cc(Br)c(C)c21` [10728/H05] is 1.1% and −4.4%; for `Cc1c(Br)cc(Br)c2c1C(=Cc1ccc(-c3ccccc3Cl)o1)C(=O)N2` [10730/H07] it is 19.0%; for `Cc1cc(C=C2C(=O)Nc3c(Br)cc(Br)c(C)c32)oc1C` [10730/H11] it is 13.9%. Under `Cc1c(Br)cc(Br)c2c1C(=Cc1cc(Cl)cc(Br)c1O)C(=O)N2` [10727/H04] stands 1.8%; under `COc1c(O)ccc(C=C2C(=O)Nc3c(Br)cc(Br)c(C)c32)c1[N+](=O)[O-]` [10733/H11], 29.1%; under `COc1cccc(C=C2C(=O)Nc3c(Br)cc(Br)c(C)c32)c1OC` [10727/H11], 3.7%.

On to `COc1cccc(O)c1C=C1C(=O)Nc2c(Br)cc(Br)c(C)c21` [10717/H10], for which the “Flk Kinase % Inhibition (P.110)” value was −5.0%. Under `COc1cc(C=C2C(=O)Nc3c(Br)cc(Br)c(C)c32)cc(OC)c1OC` [10730/H04] stands 12.1%; under `CC(=O)n1cc(C=C2C(=O)Nc3c(Br)cc(Br)c(C)c32)c2ccccc21` [10730/H05], 11.7%. The figure for `COc1c(C(C)(C)C)cc(C=C2C(=O)Nc3c(Br)cc(Br)c(C)c32)cc1C(C)(C)C` [10733/H04] is −8.5%; for `Cc1c(Br)cc(Br)c2c1C(=Cc1cc(C(C)C)c(Oc3ccccc3)c(C(C)C)c1)C(=O)N2` [10732/H04] it is 4.9%; for `Cc1c(Br)cc(Br)c2c1C(=Cc1ccc(N3CCCC3)cc1)C(=O)N2` [10729/H10] it is 5.3%.

`COc1c(C)cc(C=C2C(=O)Nc3c(Br)cc(Br)c(C)c32)cc1C` [10733/H06]: the “Flk Kinase % Inhibition (P.110)” value is given as 30.0%. The figure for `Cc1ccc2occ(C=C3C(=O)Nc4c(Br)cc(Br)c(C)c43)c(=O)c2c1` [10731/H06] is 28.7%.

Consider `COc1c([N+](=O)[O-])cc(C=C2C(=O)Nc3c(Br)cc(Br)c(C)c32)cc1C(C)(C)C` [10733/H03], for which the “Flk Kinase % Inhibition (P.110)” value is recorded as 31.2%.

Turning to `COc1cc(C=C2C(=O)Nc3c(Br)cc(Br)c(C)c32)cc2c1OCO2` [10728/H11], the “Flk Kinase % Inhibition (P.110)” value came to 3.3%. The figure for `COc1cc(C=C2C(=O)Nc3c(Br)cc(Br)c(C)c32)cc(OC)c1` [10728/H04] is −4.3%. Under `Cc1c(Br)cc(Br)c2c1C(=Cc1cc3ccccc3nc1Cl)C(=O)N2` [10730/H08] stands 9.2%; under `COc1ccc(C=C2C(=O)Nc3c(Br)cc(Br)c(C)c32)c(OC)c1OC` [10730/H02], 21.2%; under `Cc1c(Br)cc(Br)c2c1C(=Cc1ccc[nH]1)C(=O)N2` [10717/H09], −17.5%. Under `Cc1c(Br)cc(Br)c2c1C(=Cc1ccccc1OCC(=O)O)C(=O)N2` [10728/H10] stands −3.8%; under `Cc1c(Br)cc(Br)c2c1C(=Cc1ccccc1Sc1ccc(Cl)cc1)C(=O)N2` [10727/H05], 5.5%; under `COc1cc(Br)cc(C=C2C(=O)Nc3c(Br)cc(Br)c(C)c32)c1O` [10733/H08], 4.8%. Turning to `Cc1c(Br)cc(Br)c2c1C(=Cc1cc(O)ccc1O)C(=O)N2` [10727/H10], the “Flk Kinase % Inhibition (P.110)” value was −8.3%. The figure for `Cc1c(Br)cc(Br)c2c1C(=Cc1coc3ccc(C(C)C)cc3c1=O)C(=O)N2` [10731/H05] is 23.6%.

Turning to `Cc1c(Br)cc(Br)c2c1C(=Cc1cccc(Oc3ccccc3)c1)C(=O)N2` [10729/H06], the “Flk Kinase % Inhibition (P.110)” value is recorded as 11.0%.

Turning to `Cc1c(Br)cc(Br)c2c1C(=Cc1ccc3c(c1)Cc1ccccc1-3)C(=O)N2` [10728/H06], the “Flk Kinase % Inhibition (P.110)” value is 7.9%. Under `Cc1c(Br)cc(Br)c2c1C(=Cc1ccc(Br)cc1)C(=O)N2` [10717/H08] stands −8.4%; under `COc1c(Cl)cc(C=C2C(=O)Nc3c(Br)cc(Br)c(C)c32)cc1C(C)(C)C` [10732/H09], 5.4%. The figure for `Cc1c(Br)cc(Br)c2c1C(=Cc1cc(I)c(OCc3ccccc3)c(C(C)(C)C)c1)C(=O)N2` [10733/H02] is −2.0%; for `Cc1c(Br)cc(Br)c2c1C(=Cc1cc(Br)c(OCc3ccccc3)c(C(C)(C)C)c1)C(=O)N2` [10732/H08] it is 12.6%; for `Cc1c(Br)cc(Br)c2c1C(=Cc1cc(Cl)c(OCc3ccccc3)c(C(C)(C)C)c1)C(=O)N2` [10732/H10] it is 3.3%. Under `COc1cc(OC)c(OC)cc1C=C1C(=O)Nc2c(Br)cc(Br)c(C)c21` [10730/H03] stands 11.5%.

For `COC1CC(C=C2C(=O)Nc3c(Br)cc(Br)c(C)c32)C(OC)O1` (stereo not shown) [10730/H10], the “Flk Kinase % Inhibition (P.110)” value was 18.3%. Under `COc1ccc(OC)c(C=C2C(=O)Nc3c(Br)cc(Br)c(C)c32)c1` [10728/H02] stands −13.3%; under `Cc1c(Br)cc(Br)c2c1C(=Cc1cc([N+](=O)[O-])ccc1O)C(=O)N2` [10733/H10], 12.6%; under `COc1ccc(C=C2C(=O)Nc3c(Br)cc(Br)c(C)c32)cc1` [10726/H11], 12.9%. In the case of `COc1ccc2ccccc2c1C=C1C(=O)Nc2c(Br)cc(Br)c(C)c21` [10729/H02], the “Flk Kinase % Inhibition (P.110)” value is listed as 14.3%. The figure for `Cc1c(Br)cc(Br)c2c1C(=Cc1cc3c(cc1Cl)OCO3)C(=O)N2` [10727/H06] is −4.4%; for `Cc1c(Br)cc(Br)c2c1C(=Cc1ccc(Br)o1)C(=O)N2` [10726/H05] it is −6.1%; for `Cc1c(Br)cc(Br)c2c1C(=Cc1c(F)cccc1C(F)(F)F)C(=O)N2` [10728/H09] it is 0.7%. As for `Cc1c(Br)cc(Br)c2c1C(=Cc1coc3ccc([N+](=O)[O-])cc3c1=O)C(=O)N2` [10731/H07], the “Flk Kinase % Inhibition (P.110)” value is given as 74.5%.

For `Cc1c(Br)cc(Br)c2c1C(=CC(c1cccs1)C(F)(F)F)C(=O)N2` (stereo not shown) [10732/H02], the “Flk Kinase % Inhibition (P.110)” value amounted to 9.1%.
